Tests used:
Experiment in all cases: relative viability (nuclei count vs DMSO), 5 days (fraction); higher = more cells survive
[1] = compound: CC1=CN2C(=O)C=C(N=C2C(=C1)C(C)NC3=CC=CC=C3)N4CCOCC4 [TGX 221] + CC(C)C[C@H](NC(=O)[C@H](Cc1ccccc1)NC(=O)c1cnccn1)B(O)O [Bortezomib] (partner 0.002 µM)
Summary of the method: (§1)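 Relative viability is defined as nuclei in treated wells over nuclei in vehicle wells. Duplicate plates were run and medians reported. Lung cancer cell lines in 1536-well plates were dosed by pin tool one day after seeding, with one drug or with a fixed anchor-drug dose plus five library-drug doses (not always all listed) in √10 steps, and nuclei were counted after 5 days.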

[2] = compound: CC1=CN2C(=O)C=C(N=C2C(=C1)C(C)NC3=CC=CC=C3)N4CCOCC4 [TGX 221] + COc1cc2c(Oc3ccc(NC(=O)C4(C(=O)Nc5ccc(F)cc5)CC4)cc3F)ccnc2cc1OCCCN1CCOCC1 [Foretinib] (partner 0.25 µM)
Summary of the method: as §1

[3] = compound: CC1=CN2C(=O)C=C(N=C2C(=C1)C(C)NC3=CC=CC=C3)N4CCOCC4 [TGX 221] + CS(=O)(=O)CCNCc1ccc(-c2ccc3ncnc(Nc4ccc(OCc5cccc(F)c5)c(Cl)c4)c3c2)o1 [Lapatinib] (partner 2 µM)
Summary of the method: as §1

[4] = compound: C1=CC=C(C(=C1)C2=CC=C(C=C2)C3=CSC4=C3C(=C(C(=O)N4)C#N)O)O + CC(=O)c1c(C)c2cnc(Nc3ccc(N4CCNCC4)cn3)nc2n(C2CCCC2)c1=O [Palbociclib] (partner 0.5 µM)
Summary of the method: as §1

Row | Cell Line | relative viability ([1]; first compound 0.08 µM) | relative viability ([1]; first compound 0.253 µM) | relative viability ([1]; first compound 0.8 µM) | relative viability ([1]; first compound 2.53 µM) | relative viability ([1]; first compound 8 µM) | relative viability ([2]; first compound 0.08 µM) | relative viability ([2]; first compound 0.253 µM) | relative viability ([2]; first compound 0.8 µM) | relative viability ([2]; first compound 2.53 µM) | relative viability ([2]; first compound 8 µM) | relative viability ([3]; first compound 0.08 µM) | relative viability ([3]; first compound 0.253 µM) | relative viability ([3]; first compound 0.8 µM) | relative viability ([3]; first compound 2.53 µM) | relative viability ([3]; first compound 8 µM) | relative viability ([4]; first compound 0.253 µM) | relative viability ([4]; first compound 0.8 µM) | relative viability ([4]; first compound 2.53 µM) | relative viability ([4]; first compound 8 µM) | relative viability ([4]; first compound 0.08 µM)
1 | NCI-H596 | 1.17 | 1.21 | 0.938 | 0.871 | 0.948 | 0.844 | 0.928 | 0.856 | 0.894 | 0.797 | 1.13 | 1.09 | 1.03 | 0.993 | 0.958 | – | – | – | – | –
2 | NCI-H1299 | 0.985 | 1 | 0.989 | 1.03 | 0.948 | 1.12 | 1.06 | 1.1 | 1.13 | 1.07 | 0.987 | 0.99 | 0.978 | 1.03 | 0.894 | – | – | – | – | –
3 | NCI-H1395 | – | – | – | – | – | 0.903 | 0.961 | 0.873 | 0.716 | 0.628 | 0.926 | 0.862 | 0.751 | 0.804 | 0.714 | 0.706 | 0.593 | 0.611 | 0.657 | –
4 | NCI-H1563 | 0.925 | 0.783 | 0.795 | 0.719 | 0.687 | 0.855 | 0.875 | 0.936 | 0.836 | 0.68 | 0.922 | 0.871 | 0.791 | 0.851 | 0.796 | – | – | – | – | –
5 | NCI-H1623 | – | – | – | – | – | 0.815 | 0.858 | 0.827 | 0.826 | 0.77 | – | – | – | – | – | – | – | – | – | –
6 | NCI-H1648 | – | – | – | – | – | – | – | – | – | – | – | – | – | – | – | 0.282 | 0.319 | 0.261 | 0.274 | –
7 | NCI-H1703 | 0.244 | 0.323 | 0.305 | 0.234 | 0.281 | 0.328 | 0.275 | 0.335 | 0.317 | 0.337 | 1.02 | 0.974 | 0.95 | 0.859 | 0.757 | – | – | – | – | –
8 | NCI-H1793 | – | – | – | – | – | 0.708 | 0.462 | 0.51 | 0.452 | 0.411 | 0.633 | 0.624 | 0.721 | 0.58 | 0.456 | 0.422 | 0.316 | 0.285 | 0.261 | 0.255
9 | NCI-H1944 | – | – | – | – | – | 0.844 | 0.819 | 0.873 | 0.746 | 0.612 | 0.705 | 0.784 | 0.777 | 0.836 | 0.714 | 0.343 | 0.352 | 0.306 | 0.289 | 0.329
10 | NCI-H2170 | – | – | – | – | – | 0.995 | 1.1 | 0.991 | 0.945 | 0.978 | 0.285 | 0.26 | 0.264 | 0.276 | 0.265 | 0.407 | 0.404 | 0.434 | 0.329 | 0.349
11 | NCI-H2342 | – | – | – | – | – | 1.03 | 1.02 | 1.03 | 0.903 | 0.985 | – | – | – | – | – | 0.513 | 0.538 | 0.488 | 0.529 | 0.538
12 | SK-MES-1 | – | – | – | – | – | 0.994 | 0.733 | 0.863 | 0.75 | 0.558 | 0.487 | 0.414 | 0.422 | 0.39 | 0.381 | 0.305 | 0.306 | 0.305 | 0.315 | 0.296
13 | SW 900 | – | – | – | – | – | 0.682 | 0.651 | 0.788 | 0.546 | 0.726 | – | – | – | – | – | 0.621 | 0.638 | 0.518 | 0.429 | –
